Data set [1] deals with T1, Aromatase (Homo sapiens, UniProt P11511).
T1 sequence (P11511 whole entry): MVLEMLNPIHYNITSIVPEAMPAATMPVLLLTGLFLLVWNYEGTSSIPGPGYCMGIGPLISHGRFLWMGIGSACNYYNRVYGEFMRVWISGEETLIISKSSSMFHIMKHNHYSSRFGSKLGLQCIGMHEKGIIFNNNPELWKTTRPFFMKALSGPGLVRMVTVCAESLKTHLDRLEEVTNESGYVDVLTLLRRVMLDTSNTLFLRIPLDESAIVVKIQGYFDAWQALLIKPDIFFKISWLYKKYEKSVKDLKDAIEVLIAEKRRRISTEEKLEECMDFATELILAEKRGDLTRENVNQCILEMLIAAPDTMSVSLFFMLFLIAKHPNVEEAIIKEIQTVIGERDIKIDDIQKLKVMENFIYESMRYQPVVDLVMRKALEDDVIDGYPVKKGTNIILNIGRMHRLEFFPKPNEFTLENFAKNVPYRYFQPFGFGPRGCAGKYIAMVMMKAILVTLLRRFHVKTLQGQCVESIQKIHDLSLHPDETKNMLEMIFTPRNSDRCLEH
Description: Inhibition of aromatase in human JEG3 cells by scintillation spectrometry

Another data set addresses T2, Steryl-sulfatase (Homo sapiens, UniProt P08842).
T2 sequence (P08842 whole entry): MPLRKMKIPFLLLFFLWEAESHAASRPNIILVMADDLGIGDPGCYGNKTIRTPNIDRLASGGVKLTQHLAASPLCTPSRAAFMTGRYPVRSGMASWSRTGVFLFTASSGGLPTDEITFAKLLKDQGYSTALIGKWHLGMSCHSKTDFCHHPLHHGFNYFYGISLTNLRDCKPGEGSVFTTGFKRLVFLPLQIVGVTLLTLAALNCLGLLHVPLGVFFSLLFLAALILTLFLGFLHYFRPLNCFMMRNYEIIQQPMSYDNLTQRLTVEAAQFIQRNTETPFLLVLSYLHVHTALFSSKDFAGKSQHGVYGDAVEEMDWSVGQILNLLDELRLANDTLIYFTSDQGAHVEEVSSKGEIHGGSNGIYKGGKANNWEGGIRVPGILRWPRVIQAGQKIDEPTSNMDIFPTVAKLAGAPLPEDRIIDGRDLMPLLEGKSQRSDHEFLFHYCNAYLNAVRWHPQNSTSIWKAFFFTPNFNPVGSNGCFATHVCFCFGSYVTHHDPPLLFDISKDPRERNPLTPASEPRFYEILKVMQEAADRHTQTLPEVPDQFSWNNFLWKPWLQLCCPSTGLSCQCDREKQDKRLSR
The experiment in a line: Inhibition of steroid sulfatase in human JEG3 cells by scintillation spectrometry. It counts as cell-based, JEG-3.

Data set [2] concerns the target T1, Aromatase. The experiment in a line: Inhibition of aromatase in human JEG3 cells at 10 uM by scintillation spectrometry. It counts as cell-based. The conditions noted are these: JEG-3, human.
The target in data set [3] is T1, Aromatase. Briefly: Inhibition of aromatase in human JEG3 cells at 1 uM by scintillation spectrometry. It counts as cell-based, JEG-3. The settings on record: for inhibition (INH): human, jeg-3, 1 µM.
Data set [4] deals with T1, Aromatase. The experiment in a line: Inhibition of aromatase in human JEG3 cells at 0.1 uM by scintillation spectrometry. It counts as cell-based. The settings on record: JEG-3, human.
The subject of data set [5] is Rattus norvegicus. Briefly: Inhibition of aromatase in Wistar rat assessed as inhibition of PMSG-induced plasma E2 level at 1 mg/kg, po administered after 3 days of PMSG challenge by radioimmunoassay. It is filed as functional.
Data set [6] relates to Rattus norvegicus. Briefly: Inhibition of steroid sulfatase in PMSG-pretreated Wistar rat at 1 mg/kg, po administered after 3 days of PMSG challenge by liquid scintillation spectrometry. It is filed as functional.
In data set [7] the test system is Rattus norvegicus. Briefly: Inhibition of aromatase in PMSG-pretreated Wistar rat at 1 mg/kg, po administered after 3 days of PMSG challenge by radioimmunoassay.
For data set [8], the target named is T3, Steryl-sulfatase (Homo sapiens) (UniProt P08842).
T3 sequence (whole entry): T2 sequence (P08842 whole entry)
The experiment in a line: Inhibition of steroid sulfatase in human JEG3 cells at 10 uM by scintillation spectrometry. It is filed as cell-based. The conditions noted are these: JEG-3.

For data set [9], the system named is Rattus norvegicus. The experiment in a line: Estrogenic toxicity in Wistar rat assessed as increase in uterine weight at 10 mg/kg, po for 4 days. It counts as organism-based. Also on record: dose 10 mg/kg, route oral. The settings on record: in vivo, 96 h.
Data set [10] deals with Rattus norvegicus. The experiment in a line: Inhibition of aromatase in PMSG-pretreated Wistar rat plasma at 0.1 mg/kg, po administered after 3 days of PMSG challenge by radioimmunoassay. It counts as functional.
Data set [11] has as its system Rattus norvegicus. Briefly: Inhibition of aromatase in Wistar rat assessed as inhibition of PMSG-induced plasma E2 level at 0.1 mg/kg, po administered after 3 days of PMSG challenge by radioimmunoassay. It counts as functional.
Data set [12] concerns Rattus norvegicus. Briefly: Inhibition of steroid sulfatase in PMSG-pretreated Wistar rat liver at 0.1 mg/kg, po administered after 3 days of PMSG challenge by liquid scintillation spectrometry.

These results are taken from ChEMBL document CHEMBL1157574 (J Med Chem, 2010).

The term IC50 denotes the midpoint of a concentration-inhibition curve. A word on the inhibition: it is how much of the control response was suppressed. Lower therefore signals little suppression. The inhibition in vivo is the relative decrease from the control value, in per cent.

`N#Cc1ccc(Cn2cncn2)cc1-c1ccccc1` came in with an IC50 against Aromatase [1] of 0.2 nM.
For the compound `N#Cc1ccc(-c2ccc(OS(N)(=O)=O)cc2)c(C#N)c1`, the IC50 against Steryl-sulfatase was determined as 16.3 nM. The inhibition at 10 µM against Aromatase [2] is 47%.
Consider `N#Cc1ccc(Cn2cncn2)cc1-c1ccc(Cl)c(OS(N)(=O)=O)c1`, for which the IC50 is 0.35 nM against Aromatase [1] and greater than 10000 nM on Steryl-sulfatase.
For `N#Cc1ccc(-c2ccc(O)cc2)cc1Cn1cncn1`, the inhibition (INH) on Aromatase [3] was 76.4%. 0.1 µM produced 35.1% inhibition against Aromatase [4].
Compound `Oc1ccc(-c2cccc(Cn3cncn3)c2)cc1Cl` came in with an inhibition (INH) at Aromatase [3] of 85.3%. The compound also registered an inhibition at 0.1 µM at Aromatase [4] of 36.6%.
On to `N#Cc1ccc(-c2ccc(OS(N)(=O)=O)c(Cl)c2)cc1Cn1cncn1`, for which the IC50 against Aromatase [1] turned out to be 146 nM; against Steryl-sulfatase, 32.6 nM.
Taken in the same sequence, the figures for `NS(=O)(=O)Oc1ccc(-c2cccc(Cn3cncn3)c2)cc1Cl` were 70 nM and 160 nM.
On to `N#Cc1ccc(Cn2cncn2)cc1-c1ccc(O)cc1`, for which, in the data set on Rattus norvegicus [5], the “plasma estradiol (E2) level” value was 94 pg/mL. This compound also registered an IC50 against Aromatase [1] of 0.2 nM. The inhibition in vivo at 1 mg/kg with Rattus norvegicus [6] worked out at 10%; with Rattus norvegicus [7], 72%.
Regarding `N#Cc1ccc(Cn2cncn2)c(-c2ccc(OS(N)(=O)=O)c(Cl)c2)c1`, the IC50 against Aromatase [1] is 1.9 nM; on Steryl-sulfatase, greater than 10000 nM.
For `N#Cc1ccc(Cn2cncn2)c(-c2ccccc2)c1`, on Aromatase [1], the IC50 was 1.7 nM.
Regarding `N#Cc1ccc(Cn2cncn2)cc1-c1ccc(O)c(Cl)c1`, the “plasma estradiol (E2) level” value with Rattus norvegicus [5] worked out at 297 pg/mL. Besides, the inhibition in vivo at 1 mg/kg stood at 5% with Rattus norvegicus [6] and 11% in the data set with Rattus norvegicus [7].
For the compound `CN(C)S(=O)(=O)Oc1ccc(-c2cc(Cn3cncn3)ccc2C#N)cc1`, the IC50 is 0.5 nM on Aromatase [1] and greater than 10000 nM against Steryl-sulfatase.
Take `N#Cc1ccc(-c2cc(C#N)cc(Cn3cncn3)c2)cc1`: inhibition against Aromatase [1] was half-maximal at 52 nM (IC50).
In data set [8], `CC(C)(C#N)c1cc(Cn2cncn2)cc(-c2ccc(OS(N)(=O)=O)c(Cl)c2)c1` returned an inhibition of 68.2%. The same compound registered an IC50 against Aromatase [1] of 0.3 nM.
As to `N#Cc1cc(Cn2cncn2)ccc1-c1ccc(OS(N)(=O)=O)cc1`, the values for the half-maximal inhibitory concentration (IC50) at Aromatase [1] and at Steryl-sulfatase were 284 nM and 28.6 nM, respectively.
For `CN(C)S(=O)(=O)Oc1ccc(-c2cc(Cn3cncn3)ccc2C#N)cc1Cl` the same measures were 2.4 nM and greater than 10000 nM.
Regarding `N#Cc1ccc(-c2cccc(O)c2)cc1Cn1cncn1`, half-maximal inhibition on Aromatase [1] (IC50) was put at 14.4 nM.
For `N#Cc1ccc(N(Cc2ccc(OS(N)(=O)=O)c(Br)c2)n2cnnc2)cc1`, the Activity entry in the data set with Rattus norvegicus [9] is recorded as “Non-toxic”.
`N#Cc1ccc(-c2ccc(O)c(Cl)c2)cc1Cn1cncn1`: half-maximal inhibition on Aromatase [1] (IC50) was put at 74 nM.
In the case of `NS(=O)(=O)Oc1ccc(-c2cccc(Cn3cncn3)c2)cc1`, the values for the IC50 against Aromatase [1] and at Steryl-sulfatase were 275 nM and 5500 nM, respectively.
In the case of `N#Cc1ccc(-c2ccccc2)cc1Cn1cncn1`, on Aromatase [3], the inhibition (INH) was found to be 68.8%. On Aromatase [4], this compound registered an inhibition at 0.1 µM of 23.9%.
`N#Cc1cc(Cn2cncn2)cc(-c2ccc(O)c(Cl)c2)c1`: at Aromatase [1], the IC50 turned out to be 24 nM.
Turning to `N#Cc1ccc(-c2ccc(OS(N)(=O)=O)cc2)cc1Cn1cncn1`, the IC50 on Aromatase [1] worked out at 176 nM; on Steryl-sulfatase it was 140 nM.
Consider `CC(C)(C#N)c1cc(Cn2cncn2)cc(-c2ccc(O)cc2)c1`, for which 6 nM corresponded to half-maximal inhibition against Aromatase [1] (IC50).
Still for that read-out and setting: the result for `CC(C)(C#N)c1cc(Cn2cncn2)cc(-c2ccccc2)c1` reads 0.5 nM.
Turning to `N#Cc1ccc(Cn2cncn2)cc1-c1ccc(OS(N)(=O)=O)c(Cl)c1`, the “plasma estradiol (E2) level” value in the data set on Rattus norvegicus [5] is 132 pg/mL. At Steryl-sulfatase, this compound came in with an IC50 of 5.5 nM. In the data set on Rattus norvegicus [9], the Activity entry is “Non-toxic”. Further, the values for the inhibition in vivo at 1 mg/kg in the data set with Rattus norvegicus [6] and with Rattus norvegicus [7] were 92% and 60%, respectively.
Take `c1ccc(-c2cccc(Cn3cncn3)c2)cc1`: the IC50 at Aromatase [1] was 210 nM.
For `CC(C)(C#N)c1cc(Cn2cncn2)cc(-c2ccc(OS(N)(=O)=O)cc2)c1`, the IC50 against Aromatase [1] was 17.5 nM; at Steryl-sulfatase it was greater than 10000 nM.
At Aromatase [1], `N#Cc1cc(Cn2cncn2)cc(-c2ccc(O)cc2)c1` yielded a half-maximal inhibitory concentration (IC50) of 112 nM.
With `N#Cc1ccc(Cn2cncn2)cc1-c1ccc(OS(N)(=O)=O)cc1`, in the data set on Rattus norvegicus [5], the “plasma estradiol (E2) level” value was determined as 124 pg/mL. Besides, the results for the IC50 against Aromatase [1] and against Steryl-sulfatase were 2 nM and 35 nM, respectively. Further, the inhibition in vivo at 1 mg/kg worked out at 77% with Rattus norvegicus [6] and 63% in the data set on Rattus norvegicus [7].
As for `N#Cc1cc(Cn2cncn2)ccc1-c1ccc(OS(N)(=O)=O)c(Cl)c1`, the IC50 against Aromatase [1] worked out at 571 nM; against Steryl-sulfatase, 29 nM.
With `N#Cc1ccc(-c2cccc(OS(N)(=O)=O)c2)cc1Cn1cncn1`, the IC50 against Steryl-sulfatase is greater than 10000 nM. At Aromatase [3] (JEG-3, human), this compound displayed an inhibition at 1 µM of 63.4%.
In the case of `N#Cc1cc(Cn2cncn2)cc(-c2ccc(OS(N)(=O)=O)cc2)c1`, the IC50 against Aromatase [1] was 280 nM; against Steryl-sulfatase, greater than 10000 nM.
Regarding `N#Cc1cc(Cn2cncn2)cc(-c2ccc(F)cc2)c1`, the IC50 on Aromatase [1] is 19 nM.
Turning to `CC(C)(C#N)c1cc(Cn2cncn2)cc(-c2ccc(O)c(Cl)c2)c1`, the 50% inhibitory concentration (IC50) at Aromatase [1] amounted to 0.1 nM.
Regarding `CCCN1C(=O)CC2C3CCc4cc(OS(N)(=O)=O)ccc4C3CC[C@]2(C)C1=O` (stereo partly specified), the inhibition in vivo at 1 mg/kg in the data set on Rattus norvegicus [6] was 99%.
Compound `N#Cc1ccc(Cn2cncn2)c(-c2ccc(O)c(Cl)c2)c1` yielded an IC50 against Aromatase [1] of 0.8 nM.
The same measure, in the same setting: to `N#Cc1cc(Cn2cncn2)ccc1-c1ccc(O)cc1` belongs 920 nM.
Take `Oc1ccc(-c2cccc(Cn3cncn3)c2)cc1`: the inhibition (INH) against Aromatase [3] was 79%. In addition, at Aromatase [4], the inhibition at 0.1 µM came out at 24.6%.
Regarding `N#Cc1ccc(Cn2cncn2)cc1-c1cccc(Cl)c1`, the IC50 at Aromatase [1] was 0.22 nM.
On to `N#Cc1cc(Cn2cncn2)ccc1-c1ccc(O)c(Cl)c1`, for which, at Aromatase [1], the IC50 was 380 nM.
As for `N#Cc1cc(Cn2cncn2)cc(-c2ccc(OS(N)(=O)=O)c(Cl)c2)c1`, the values for the IC50 against Aromatase [1] and at Steryl-sulfatase were 80 nM and 6330 nM, respectively.
On Aromatase [1], `N#Cc1ccc(Cn2cncn2)cc1-c1ccc(Cl)c(O)c1` came in with an IC50 of 0.22 nM.
On the same count and under the same terms, to `N#Cc1cc(Cn2cncn2)cc(-c2ccccc2)c1` belongs 29.3 nM; to `N#Cc1cc(Cn2cncn2)ccc1-c1ccccc1`, 4.6 nM.
With `N#Cc1ccc(C(c2ccc(C#N)cc2)n2cncn2)cc1` [LETROZOLE], the inhibition in vivo at 0.1 mg/kg stood at 85% with Rattus norvegicus [10] and 0% in the data set on Rattus norvegicus [12]. Besides, the Activity with Rattus norvegicus [11] amounted to 49 pg/mL.
